In patent US9562042B2, “α-oxoacyl amino-caprolactam” (Seikagaku Corporation, priority 2013, dated 2017):
pIC50: −log10 of the molar value.

Tests used:
cathepsin K = assay: Measurement of cathepsin K inhibitory activity (decomposition of fluorescent substrate Z-Gly-Pro-Arg-MCA); assay type: biochemical
Method: Cathepsin K was prepared as follows. […] Specifically, the decomposition of 20 μM Z-Gly-Pro-Arg-MCA by cathepsin K was measured in 100 mM potassium sodium phosphate, 1 mM EDTA, 8 mM Cysteine, pH 6.0. The reaction was performed at 37° C. for 30 minutes and then quenched by the addition of 2×10^−5 M of calpeptin.

CYP3A4 = CYP3A4 (Homo sapiens, UniProt P08684); assay: Measurement of CYP3A4 inhibitory activity (midazolam 1'-hydroxylation in human hepatic microsomes, DI and MBI); assay type: in vitro ADME; conditions: human hepatic (liver) microsomes, probe midazolam (1'-hydroxylation), inventive compounds (Table 4); for IC50 at 10 min: direct inhibition, midazolam, 37° C. 10 minutes, read-out: CYP3A inhibitory IC50 (μmol/L) DI; for pIC50: mechanism based inhibition, pre-incubated 37° C. 30 minutes before midazolam, read-out: CYP3A inhibitory IC50 (μmol/L) MBI
Chain of CYP3A4 (P08684 2-503): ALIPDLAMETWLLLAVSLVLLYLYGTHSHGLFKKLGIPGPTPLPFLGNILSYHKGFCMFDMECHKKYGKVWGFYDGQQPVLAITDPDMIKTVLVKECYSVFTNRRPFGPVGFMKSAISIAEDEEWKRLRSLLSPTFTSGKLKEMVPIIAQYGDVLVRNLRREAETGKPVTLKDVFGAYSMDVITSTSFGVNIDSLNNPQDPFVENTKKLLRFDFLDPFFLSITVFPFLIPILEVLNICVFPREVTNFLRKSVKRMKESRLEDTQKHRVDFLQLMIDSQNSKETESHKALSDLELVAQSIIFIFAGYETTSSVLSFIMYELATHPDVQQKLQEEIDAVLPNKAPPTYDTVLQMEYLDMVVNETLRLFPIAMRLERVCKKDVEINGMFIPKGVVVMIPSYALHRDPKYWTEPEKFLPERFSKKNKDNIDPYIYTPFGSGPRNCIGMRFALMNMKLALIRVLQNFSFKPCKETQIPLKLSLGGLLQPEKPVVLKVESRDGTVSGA
Method: The measurement of CYP3A4 inhibitory activity was performed with reference to the method of Newton et al. (Drug Metab. Dispos. 23, 154-158 (1995)) and the method described in JP 2007-236327 A.
A reaction mixture was prepared by mixing the compound of the present invention with midazolam as a typical substrate for CYP3A4 (see Food and Drug Administration (FDA) Guidance for Industry Drug Interaction Studies—Study Design, Data Analysis, Implications for Dosing, and Labeling Recommendations. FDA web site [online], www.fda.gov/downloads/drugs/guidancecomplianceregulatoryinformation/guidances/ucm292362.pdf), coenzyme NADPH-generating system, human hepatic microsomes, and a phosphate buffer. The reaction mixture was incubated at 37° C. for 10 minutes.
The coenzyme NADPH-generating system solution was prepared by mixing the materials shown in Table 1: the 13 mmol/L β-NADP^+ solution, the 33 mmol/L G-6-P solution, the solution of 10 U/mL G6PDH (Y) (manufactured by Oriental Yeast Co., Ltd.), and the 33 mmol/L MgCl2 solution in a ratio of 1:1:0.4:1 (v:v:v:v). […] The final concentrations of the compounds of the present invention and the comparative compounds were set at the levels considered to be necessary for the calculation of the IC50 values based on the results of the measurement performed at an arbitrary concentration in advance.
After the incubation, the reaction was quenched by the addition of an acetonitrile solution to the reaction mixture. The amount of 1′-hydroxymidazolam produced (the metabolite produced from midazolam by CYP3A4) was measured in the quenched sample with a high-performance liquid chromatography tandem mass spectrometer (LC-MS/MS). Each IC50 value for DI (direct inhibition) was determined from the amount of the produced 1′-hydroxymidazolam and the final concentration of the compound of the present invention or the comparative compound in the reaction mixture.
MBI (mechanism based inhibition) was evaluated as follows. After the reaction mixture not containing midazolam (but containing the compound of the present invention or the comparative compound, the coenzyme NADPH-generating system, the human hepatic microsomes, and the phosphate buffer) was pre-incubated at 37° C. for 30 minutes, midazolam was added to the reaction mixture. The reaction mixture was then incubated at 37° C. for 10 minutes. Subsequently, the reaction was quenched by the addition of an acetonitrile solution to the reaction mixture. The amount of 1′-hydroxymidazolam produced was measured in the quenched sample with an LC-MS/MS. As in the case of DI, each IC50 value for MBI was determined from the amount of the produced 1′-hydroxymidazolam and the final concentration of the compound of the present invention or the comparative compound in the reaction mixture.

CYP/CatK (cathepsin K) | IC50 at 10 min (CYP3A4) | pIC50 (CYP3A4) | Structure (SMILES)
56555 | 43.5 µmol/L | 4.35 | CC(C)[C@H](NC(=O)C1(NC(=O)N2CCSC2)CCCCC1)C(=O)C(=O)N[C@H]1CCCCNC1=O [Compound 1]
52214 | 101 µmol/L | 4.14 | CC(C)[C@H](NC(=O)C1(NC(=O)N2CCCC2)CCCCC1)C(=O)C(=O)N[C@H]1CCCCNC1=O [Compound 2]
40294 | 208 µmol/L | 3.86 | CC(C)[C@H](NC(=O)C1(NC(=O)[C@H]2CCCO2)CCCCC1)C(=O)C(=O)N[C@H]1CCCCNC1=O [Compound 3]
